Data on 13 molecules can be found in patent US20110053995A1, “BENZENESULFONANILIDE COMPOUND INHIBITORS OF UREA TRANSPORTERS” (THE REGENTS OF THE UNIVERSITY OF CALIFORNIA, priority 2006, published 2011).

The target of one assay is T1, UT-B (Homo sapiens, UniProt Q13336).
T1 construct: a red blood cell (i.e., erythrocyte), which endogenously expresses the urea transporter UT-B; endogenous in cells; host or cells: human red blood cells (whole venous blood, single donor)
T1 sequence (Q13336 1-389): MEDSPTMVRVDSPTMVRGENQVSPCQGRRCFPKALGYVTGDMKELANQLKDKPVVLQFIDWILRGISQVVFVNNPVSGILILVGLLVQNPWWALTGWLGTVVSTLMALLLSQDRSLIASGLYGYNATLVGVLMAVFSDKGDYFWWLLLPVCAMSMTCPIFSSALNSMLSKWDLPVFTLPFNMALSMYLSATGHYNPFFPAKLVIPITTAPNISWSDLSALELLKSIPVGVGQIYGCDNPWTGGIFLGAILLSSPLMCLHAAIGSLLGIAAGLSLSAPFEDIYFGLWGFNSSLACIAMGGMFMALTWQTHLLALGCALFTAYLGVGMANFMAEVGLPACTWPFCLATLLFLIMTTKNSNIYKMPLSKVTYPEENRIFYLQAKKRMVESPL
In words: RBC lysis assay, human RBCs. The assay is classed as cell-based. The text has this: Vigorous mixing was achieved by repeated pipetting.

The target of another assay is T2, rat UT-A1 (Rattus norvegicus, UniProt Q62668).
T2 construct: expressed in transfected cells; host or cells: MDCK cells (gift of Dr. Jeffrey Sands, Emory University)
T2 sequence (Q62668 1-929): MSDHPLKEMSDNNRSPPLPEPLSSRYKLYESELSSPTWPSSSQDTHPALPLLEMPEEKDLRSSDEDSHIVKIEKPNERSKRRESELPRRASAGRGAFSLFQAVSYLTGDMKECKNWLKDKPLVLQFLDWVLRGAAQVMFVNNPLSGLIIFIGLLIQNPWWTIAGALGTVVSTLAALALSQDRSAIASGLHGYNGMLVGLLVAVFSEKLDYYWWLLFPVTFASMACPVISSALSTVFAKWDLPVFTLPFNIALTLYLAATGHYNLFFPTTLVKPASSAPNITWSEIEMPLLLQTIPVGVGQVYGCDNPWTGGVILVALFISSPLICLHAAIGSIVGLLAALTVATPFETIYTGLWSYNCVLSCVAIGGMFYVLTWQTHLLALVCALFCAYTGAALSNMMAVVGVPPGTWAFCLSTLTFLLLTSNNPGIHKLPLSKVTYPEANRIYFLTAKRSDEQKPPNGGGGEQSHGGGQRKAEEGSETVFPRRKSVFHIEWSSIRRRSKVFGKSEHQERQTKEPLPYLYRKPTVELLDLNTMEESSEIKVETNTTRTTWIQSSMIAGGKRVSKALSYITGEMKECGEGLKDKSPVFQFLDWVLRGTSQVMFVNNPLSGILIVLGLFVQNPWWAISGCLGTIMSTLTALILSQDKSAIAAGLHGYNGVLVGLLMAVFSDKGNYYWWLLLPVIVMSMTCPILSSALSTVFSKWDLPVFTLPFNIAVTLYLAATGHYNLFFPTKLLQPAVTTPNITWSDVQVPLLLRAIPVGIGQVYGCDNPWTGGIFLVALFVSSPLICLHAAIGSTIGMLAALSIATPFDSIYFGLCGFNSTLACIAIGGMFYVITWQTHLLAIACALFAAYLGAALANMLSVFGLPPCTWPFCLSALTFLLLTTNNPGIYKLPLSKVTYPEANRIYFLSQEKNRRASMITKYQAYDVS
In words: UT-A1-facilitated urea flux across MDCK-UT-A1 cell layers. The assay is classed as cell-based. The following applies: for inhibition of rat UT-A1: 25 μM. As for the experimental part: Concentration-inhibition studies were performed to study the effect of the active mouse UT-B inhibitors on urea transport by UT-A. The amino acid sequences of UT-B and UT-A urea transporter isoforms share significant similarity. The cells used in these studies were MDCK cells that expressed rat UT-A1. MDCK-UT-A1-expressing cells were grown on collagen-coated porous filters until they were electrically tight, at which point 15 mM urea was introduced into buffer bathing the basolateral cell surface.
MDCK cells stably transfected with rat UT-A1 (MDCK-UT-A1) (Fröhlich et al., Am J Physiol. in press; Fröhlich et al., Am. J. Physiol. Cell Physiol. 286:C1264-70 (2004). Epub on Jan. 28, 2004) were generously provided by Dr. Jeffrey Sands (Emory University School of Medicine, Atlanta, Ga.). Cells were grown in Dulbecco's Modified Eagle Medium (DMEM) with bicarbonate and supplemented with 10% fetal bovine serum (FBS), 25 mM HEPES buffer, penicillin G (100 U/mL), streptomycin (100 μg/mL) and hygromycin (500 μg/mL). For determining urea flux, cells were grown on 12-mm collagen-coated TRANSWELL inserts (0.4 μm pore size; Costar) as described (Fröhlich et al., Am J Physiol. in press; Fröhlich et al., 2004, supra). The TRANSWELL inserts were incubated in hygromycin-free medium for 1 hr in a 5% CO2 tissue culture incubator (37° C.), and then 2×10^5 cells/cm^2 were loaded onto each insert. Cells were used after culturing the cells for 4 days in hygromycin-free medium, at which time they formed tight monolayers (transepithelial resistance 500-600 Ω·cm^2).
UT-A1-facilitated urea flux in the basolateral-to-apical direction across unstimulated and forskolin-stimulated MDCK-UT-A1 cell layers was measured in response to a 15-mM urea gradient. Experiments were carried out in 12-well plates in which PBS, containing either DMSO vehicle or forskolin, with or without UT-B inhibitor, added to both the apical-facing (0.2 mL) and basal-facing (1 mL) surfaces of cells on the porous filters. Cultures were incubated in the absence of urea for 30 min at 37° C. Then, the basal-facing solution was replaced with PBS (containing same components) with 15 mM urea. Five μL samples of apical fluid were collected at specified times during incubation at 37° C., and urea concentration was determined using a commercial kit based on chromogenic urea complexation at 520-nm wavelength (Quantichrom™ Urea Assay Kit, BioAssay Systems, Hayward, Calif.). Forskolin (10 μM), with or without UT-B transport inhibitors, was added from 1000× DMSO stock solutions (0.2% final DMSO content). Inhibition of UT-A1-mediated transport was defined as % inhibition=100% (Aforsk−Atest)/(Aforsk−Aphlor). Aforsk, and Aphlor were averaged absorbance values (at 520 nm) for cultures treated with forskolin and forskolin+phloretin, respectively, and Atest were values from cultures treated with forskolin+test compound.

A further assay deals with RBCs from wild-type mice. In words: Osmotic water permeability, RBCs from wild-type mice. The assay is classed as cell-based, mouse. As for the experimental part: FIGS. 8A-B illustrate UT-B-facilitated water transport by ‘chemical UT-B knock-out’. Osmotic water permeability was measured from the time course of RBC volume in response to a 250-mM inwardly directed sucrose gradient. FIG. 8A presents representative traces of mouse RBC water permeability performed at 10° C., with genotypes and conditions indicated. Inhibitors ureainh-201 and ureainh-302 were used at 25 μM. FIG. 8B presents osmotic water permeability coefficients (Pf) from experiments as illustrated in FIG. 8A (±SE, 3-7 curves per group of RBCs pooled from 4 mice per genotype). *, P<0.01 compared with no inhibitor; #, P<0.01 compared with wild-type (no inhibitor).
RBC urea and water permeabilities were assayed by stopped-flow light scattering using a Hi-Tech Sf-51 instrument (Wiltshire, UK). For measurement of urea permeability, dilutions of whole blood (human or mouse; see Example 1) in PBS (hematocrit: approximately 0.5%) were incubated with test compounds for 5 min and then subjected to a 250-mM inwardly directed gradient of urea. After an initial osmotic shrinking phase, the kinetics of increasing cell volume caused by urea influx were measured as the time-course of 90° scattered light intensity at 530 nm, with increasing cell volume resulting in reduced scattered light intensity. As a positive control, 0.7 mM phloretin was added to the RBC suspension prior to stopped-flow experiments. Measurements of water permeability were carried out similarly, with sucrose (cell-impermeant) used instead of urea to establish a 250-mM osmotic gradient. As a positive control, HgCl2 (0.3 mM) was added to the RBC suspension prior to stopped-flow measurements. Osmotic water permeability coefficients (Pf) were computed from light scattering data as described (van Hoek et al., J Biol Chem. 267:18267-69 (1992)).
This example describes chemical knock-out of UT-B by UT-B inhibitors in RBCs and the effect on UT-B-facilitated Water transport. […] Osmotic water permeability was measured by stopped-flow light scattering in RBCs from wild-type and AQP1-null mice as shown in FIG. 8A. […] AQP1-null RBCs had greater than 5-fold reduced Pf compared to wild-type RBCs.

The next assay relates to UT. The following applies: non-specific membrane intercalating agent; cited from earlier work.
Setting [1] is: lysis assay, FIG. 5B, read-out: apparent EC50.
Where [2] appears, read: Table 2, read-out: EC50 (μM), UT-B inhibitory potency.

Where two headings read alike, the source gives them in different places.

One may read the EC50 as the midpoint of the concentration-response curve. As to `CCn1c(NCc2cc(Br)ccc2O)nc2ccccc21` [ureainh-404], the EC50 at UT-B (setting [1]) is 0.4 µM. In addition, the “inhibition of rat UT-A1” value against rat UT-A1 is listed as “Neither ureainh-201 at 25 μM nor ureainh-404 at 25 μM significantly inhibited”.

With `CC(=O)c1cccc(S(=O)(=O)Nc2ccc3c(c2)OCCO3)c1` [ureainh-210, 3-acetyl-N-(2,3-dihydrobenzo [b][1,4]dioxin-6-yl) Benzenesulfonamide], at UT-B (setting [2]), the EC50 worked out at 6 µM.

For `O=C(CCc1ccc(O)cc1)c1c(O)cc(O)cc1O` [phloretin, reference compound], the “reduction in Pf” value in the assay on RBCs from wild-type mice (0.7 mM) was “small but significant reduction”. Further, the “effect on water transport” value in the assay on RBCs from wild-type mice (inhibitors 25 μM, phloretin 0.7 mM, 10° C.) is reported as “little effect on water transport”. The concentration exhibiting activity with UT is listed as greater than 0.5 mM. The UT-A1-facilitated urea transport result on rat UT-A1 (phloretin 0.7 mM, forskolin-stimulated) was “inhibited”.

On to `Cn1c(=O)oc2cc(NS(=O)(=O)c3cccc(C(F)(F)F)c3)ccc21` [ureainh-217, N-(3-methyl-2-oxo-2,3-dihydrobenzo[d]oxazol-6-yl)-3-(trifluoromethyl) Benzenesulfonamide], for which the EC50 on UT-B (setting [2]) was found to be 4 µM.

With `Cc1ccc(S(=O)(=O)Nc2ccc3c(c2)OCCO3)cc1C` [ureainh-212, N-(2,3-dihydrobenzo[b][1,4]dioxin-6-yl)-3,4-dimethylbenzenesulfonamide], the EC50 on UT-B (setting [2]) was determined as 10 µM.

With `NC(=O)c1ccc(S(=O)(=O)Nc2ccc3c(c2)OCCO3)cc1` [ureainh-207, 4-(N-(2,3-dihydrobenzo [b][1,4]dioxin-6-yl)sulfamoyl)benzamide], the 50% effective concentration (EC50) at UT-B (setting [2]) amounted to 2 µM.

On to `O=S(=O)(Nc1ccc2c(c1)OCCO2)c1cccc(Br)c1` [ureainh-211, 3-bromo-N-(2,3-dihydrobenzo[b][1,4]dioxin-6-y])benzenesulfonamide], for which the EC50 at UT-B (setting [2]) stood at 8 µM.

In the case of `Cc1cc(C)cc(S(=O)(=O)Nc2ccc3c(c2)OCCO3)c1` [ureainh-208, N-(2,3-dihydrobenzo [b][1,4]dioxin-6-yl)-3,5-dimethylbenzenesulfonamide], the EC50 on UT-B (setting [2]) came to 4 µM.

Regarding `COc1cc(OC)cc(S(=O)(=O)Nc2cc(OC)ccc2OC)c1` [ureainh-201, N-(2,5-dimethoxyphenyl)-3,5-dimethoxybenzene sulfonamide], at UT-B (setting [1]), the EC50 is 0.3 µM. Moreover, the “inhibition of rat UT-A1” value on rat UT-A1 was “Neither ureainh-201 at 25 μM nor ureainh-404 at 25 μM significantly inhibited”.

Turning to `COc1cccc(S(=O)(=O)Nc2ccc3c(c2)OCCO3)c1` [ureainh-209, N-(2,3-dihydrobenzo [b][1,4]dioxin-6-yl)-3-Methoxybenzenesulfonamide], the EC50 at UT-B (setting [2]) was determined as 6 µM.

Consider `COc1ccc(OC)c(NS(=O)(=O)c2ccc(Br)cc2)c1` [ureainh-202, 4-bromo-N-(2,5-dimethoxyphenyl) benzenesulfonamide], for which, on UT-B (setting [2]), the EC50 was 0.4 µM.

As to `O=S(=O)(Nc1ccc2c(c1)OCCO2)c1ccc2ccccc2c1` [ureainh-213, N-(2,3-dihydrobenzo[b][1,4]dioxin-6-yl)naphthalene-2-sulfonamide], the EC50 at UT-B (setting [2]) is 10 µM.

Consider `COc1ccc(OC)c(NS(=O)(=O)c2cccc(Br)c2)c1` [ureainh-203, 3-bromo-N-(2,5-dimethoxyphenyl) benzenesulfonamide], for which the EC50 at UT-B (setting [2]) was found to be 0.7 µM.
